The target of data set [1] is T1, MtDXPS (Mycobacterium tuberculosis, UniProt P9WNS3). The data set can be described thus: biochemical.
Data set [2] concerns the target T2, DrDXPS (WT) (Deinococcus radiodurans, UniProt Q9RUB5). Description: biochemical. The data set is classed as biochemical. Particulars: for inhibition at 100 µM: read-out: Inhibition % at 100 μM, Fig. 5E, DrDXPS (WT); for IC50: DrDXPS (WT) IC50, Fig. 2B.
The target in data set [3] is T1, MtDXPS. The data set can be described thus: biochemical. Particulars: for inhibitory activity against MtDXPS, SAR statement: SAR discussion of Table 1A–C.
For data set [4], the target named is T1, MtDXPS. Description: microscale thermophoresis (MST) dissociation constant. It counts as binding. Particulars: Fig. 4F. On the procedure: ETB + A <===> ETAB : Ka2 (Ka2 is the dissociation constant of pyruvate with […]
ETA + B <===> ETAB : Kb2 (Kb2 is the dissociation constant of ThDP with DXPS) E + I <===> EI* : Ki* (Ki* is the Morrison inhibition constant of inhibitor with apoDXPS) ETAB ---> ET + P : kcat (kcat is the catalytic constant of DXPS) […]
microscale thermophoresis (MST)
MST measurements were performed on a Monolith NT.115 (NanoTemper
Technologies GmbH, Germany) instrument using red-dye-NHS fluorescent labeling.
Each purified MtDXPS sample was labeled with red-dye-NHS second generation dye, according to the supplied protocol. Measurements were performed in 100 m M Tris-HCl (pH 7.6) containing 0.05% Tween-20 and 5% DMSO in premium treated capillaries.
The final concentration of each labeled protein in the assay was 100 n M. The inhibitors were titrated in 1:1 dilutions according to the supplier’s recommendations. All binding reactions were incubated at room temperature for 30 min before loading, and then pre-incubated for 5 min at room temperature after loading into the capillaries. Experiments were performed in duplicates, using 40% LED power, medium MST power, laser on time 20 s, and laser off time 3 s. Kds of the inhibitors were extracted from raw data at a 10–20 s on time according to the manufacturer’s instructions. A denaturation test was performed to exclude any nonspecific spectral interactions between the inhibitors […]
The solutions were vortexed, and then the rest of the assay components was added in the following order: HEPES, pH = 8 (100 m M), bovine serum albumin (1 mg/mL), cysteine (2 mM), ThDP (0.325 μM), coenzyme-A (150 μM), TCEP (300 μM), pyruvate (150 μM) and MgCl2 (1 mM). […] Porcine PDH (final concentration of 0.01 U/ mL) was then added to initiate the reactions, which were monitored spectrophotometrically by measuring the […]
In general terms: In MST a laser heats a spot of the sample, and binding alters the fluorescence response.

For data set [5], the system named is E. coli strain BL21 (DE3) pQEYAEM. The data set can be described thus: microbe, parasite or virus in culture. As to conditions: Escherichia coli, Fig. 6A. The data set is classed as cell-based.
The subject of data set [6] is E. coli strain BL21 (DE3) pET22b-H6[…]. The data set can be described thus: microbe, parasite or virus in culture. The data set is classed as cell-based. Particulars: Escherichia coli, Fig. 6B.
For another data set, the system named is M. tuberculosis strains. Description: MIC against multiple M. tuberculosis strains, absolute concentration method on 7H10 agar. It counts as cell-based. As to conditions: Mycobacterium tuberculosis.
A further data set deals with HepG2. Description: toxicity against human cell lines. As to conditions: HepG2, 48 h, read-out: Toxicity Human cell lines EC50 (μM) HepG2. It counts as cell-based.
The next data set concerns HEK293. The data set can be described thus: toxicity against human cell lines. As to conditions: HEK293, 48 h, read-out: Toxicity Human cell lines EC50 (μM) HEK293. The data set is classed as cell-based.
For the next data set, the system named is A549. Description: toxicity against human cell lines. The data set is classed as cell-based. Particulars: A549, 48 h, read-out: Toxicity Human cell lines EC50 (μM) A549.
The subject of a further data set is E. coli TolC. Description: microbe, parasite or virus in culture. The data set is classed as cell-based. As to conditions: Escherichia coli.
The target of data set [7] is T1, MtDXPS.
A short description of data set [8]: metabolic stability in human liver S9 fraction. Particulars: pooled liver S9 fraction.
Protocol: For vitro assessment of metabolic stability, 10 µL of each compound (10 µM) was
incubated with human pooled liver S9-fraction (1 mg/mL, Corning, Corning, NY, USA)
in a master mix containing 2 mM NADP, 10 mM glucose-6-phosphate, 10 U/mL
glucose-6-phosphate dehydrogenase, 1 mM UDPGA, 0.1 mM PAPS, 10 mM MgCl2.
acetonitrile containing diphenhydramine as internal standard at 4 °C. The supernatant
was used for LC-MS analysis and half life time t1/2 was calculated from decreasing
concentrations/peak areas.
LC conditions: samples were analyzed with an Ultimate 3000 HPLC (Thermo Fisher,
Waltham, MA, USA) coupled to a TSQ Quantum Access Max triple quadrupole mass
spectrometer (Thermo Fisher, Waltham, MA, USA) in SRM mode. Analysis was
performed on a Nucleodur C18 Pyramid column (3 µm, 2x150 mm, Macherey-Nagel,
Düren, Germany) with a flow of 0.6 mL/min and a water (0.1% formic acid) and
acetonitrile (0.1% formic acid) eluent system. Gradient as follows: 10% acetonitrile for
1 min, 10–90% acetonitrile over 0.7 min, 90% acetonitrile for 1.8 min, equilibration at
10% acetonitrile for 1 min.
MS conditions: calibration of mass spectrometer parameters was performed
individually for each compound:
The next data set deals with mCherry-Mtb H37Rv. The data set is classed as cell-based, Mycobacterium tuberculosis.
In data set [9] the target is T1, MtDXPS. As to conditions: cited from earlier work.
In data set [10] the target is T2, DrDXPS (WT). Particulars: pseudo-inhibitors; cited from earlier work.
Another data set relates to DXPS. As to conditions: cited from earlier work.
The test system of the next data set is P. falciparum. Particulars: Target pathogen: P. falciparum; Fig. 1A; ref 18–26 (fosmidomycin), 15,27–29 (BITZ, TZLP); cited from earlier work.
The test system of the next data set is IspC. Particulars: Target enzyme: IspC; Fig. 1A; cited from earlier work.
For a further data set, the system named is IspD. As to conditions: read-out: Activity on target enzyme: IC50; cited from earlier work.
Another data set has as its system E. coli. Particulars: Fig. 1A; cited from earlier work.
A further data set deals with IspF. As to conditions: read-out: Activity on target enzyme: IC50; cited from earlier work.
The mark [11] stands for this setting: [IPTG] 0.5 mM (E. coli IspC overexpression).
Setting [12] is: [IPTG] 0.5 mM (MtDXPS overexpression).

≈ marks a conversion by molar mass, not a printed value. Where “and” joins values, the source holds several entries; their conditions need not be identical. Equal entries are not always repeated. Where two headings read alike, the source gives them in different places.

The IC50 is the concentration at which inhibition is half-maximal. As a reminder, the inhibition is the percentage by which the read-out fell short of the control. What is called Kd is the constant that tells how readily two partners part at equilibrium. Low readings indicate tighter binding, high ones weaker binding. Broadly, the EC50 is the concentration needed to bring the measured effect to its halfway point. As a reminder, the half-life is how long it takes for the measured level to halve.

T1 sequence (P9WNS3 whole entry, looked up): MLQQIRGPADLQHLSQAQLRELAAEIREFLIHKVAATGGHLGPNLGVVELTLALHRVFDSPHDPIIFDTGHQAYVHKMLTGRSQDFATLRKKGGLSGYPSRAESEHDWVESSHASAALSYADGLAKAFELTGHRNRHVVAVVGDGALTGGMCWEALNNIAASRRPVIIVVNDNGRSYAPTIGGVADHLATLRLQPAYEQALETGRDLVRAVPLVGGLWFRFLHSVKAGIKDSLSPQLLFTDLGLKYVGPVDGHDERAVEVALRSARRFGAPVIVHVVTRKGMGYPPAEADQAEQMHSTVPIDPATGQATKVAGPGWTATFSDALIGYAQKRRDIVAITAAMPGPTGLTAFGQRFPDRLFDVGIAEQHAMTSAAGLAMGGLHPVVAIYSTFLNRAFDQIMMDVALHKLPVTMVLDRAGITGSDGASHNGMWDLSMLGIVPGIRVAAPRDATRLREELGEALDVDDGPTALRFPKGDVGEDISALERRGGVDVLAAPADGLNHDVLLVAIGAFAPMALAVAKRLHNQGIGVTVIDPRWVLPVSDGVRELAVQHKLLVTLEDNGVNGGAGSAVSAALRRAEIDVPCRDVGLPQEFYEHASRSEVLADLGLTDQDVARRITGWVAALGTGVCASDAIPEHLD
T2 sequence (Q9RUB5 whole entry, looked up): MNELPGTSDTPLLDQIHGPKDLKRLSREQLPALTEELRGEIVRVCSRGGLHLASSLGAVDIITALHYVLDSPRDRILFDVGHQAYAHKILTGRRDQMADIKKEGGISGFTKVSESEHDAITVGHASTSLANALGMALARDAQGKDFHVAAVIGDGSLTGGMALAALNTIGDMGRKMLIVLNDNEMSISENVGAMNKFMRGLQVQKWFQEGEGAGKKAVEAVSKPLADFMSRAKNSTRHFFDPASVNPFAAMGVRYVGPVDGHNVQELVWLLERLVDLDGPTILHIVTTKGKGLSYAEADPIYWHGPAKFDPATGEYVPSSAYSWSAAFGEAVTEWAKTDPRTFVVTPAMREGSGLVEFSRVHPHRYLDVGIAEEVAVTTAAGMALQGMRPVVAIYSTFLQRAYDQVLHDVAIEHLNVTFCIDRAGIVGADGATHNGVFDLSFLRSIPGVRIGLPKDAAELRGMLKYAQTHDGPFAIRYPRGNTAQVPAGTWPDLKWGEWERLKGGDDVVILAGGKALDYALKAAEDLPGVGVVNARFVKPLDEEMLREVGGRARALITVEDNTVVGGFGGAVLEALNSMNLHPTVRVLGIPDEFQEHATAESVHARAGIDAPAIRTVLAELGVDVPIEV

Regarding `OCc1cn(Cc2ccc(Cl)c(Cl)c2)c2ccccc12` [Compound 7], the IC50 against MtDXPS [1] (IC50 (μM)) was 34 ± 4 µM; against MtDXPS [1] (IC50 against MtDXPS) it was 34 µM and 82 µM; against MtDXPS [1] (IC50 against MtDXPS (MOI study)), 12 µM and 34 µM and 33 µM and 59 µM. At MtDXPS [1] (MOI study, comparison of IC50 under varied [ThDP], [PYR], [D-GAP]), the “mode of inhibition on MtDXPS” value was “competitive with ThDP and D-GAP, but non-competitive with PYR”. In addition, on MtDXPS [1] (time-dependent progress curves, Fig. 4A, inhibitor 100 µM), the “equilibration time (slow-binding)” value is listed as approximately 100 s. In addition, the inhibition at 100 µM at DrDXPS (WT) [2] ([ThDP] 0.1 μM (1.6x Km), [PYR] 0.5 mM (2.4x), [D-GAP] […] (1.5x)) is 63 ± 4%; on DrDXPS (WT) [2] ([ThDP] 0.1 μM (1.6x Km), [PYR] […] (1.2x), [D-GAP] 0.5 mM (2.9x)) it was 51 ± 3%; on DrDXPS (WT) [2] ([ThDP] 0.1 μM (1.6x Km), [PYR] […] (1.2x), [D-GAP] […] (1.5x)), 61 ± 5%; at DrDXPS (WT) [2] ([ThDP] 0.2 μM (3.2x Km), [PYR] […] (1.2x), [D-GAP] […] (1.5x)), 48 ± 4%. Also, the Ki at MtDXPS [3] (K i* (μM), Table 1A, indole derivatives, MtDXPS) was 1.3 ± 0.2 µM; at MtDXPS [3] (Morrison constant Ki* against MtDXPS, two-step tight-binding Morrison model, Dynafit, text and Fig. 4C–E), 1.29 µM. This molecule also had a dissociation constant Kd on MtDXPS [4] of 1.37 µM. In addition, the MIC in data set [5] ([IPTG] 0 mM) came to 13 ± 1 µM (≈ 3.98 µg/mL); in data set [5] (setting [11]) it was 10 ± 2 µM (≈ 3.06 µg/mL); in data set [6] ([IPTG] 0 mM), 10 ± 3 µM (≈ 3.06 µg/mL); in [6] (setting [12]) it was 14 ± 2 µM (≈ 4.29 µg/mL); in the data set with M. tuberculosis strains (read-out: Antitubercular activity Strain & MIC (μM) A), 10 µM (≈ 3.06 µg/mL); in the data set with M. tuberculosis strains (read-out: Antitubercular activity Strain & MIC (μM) B) it was 10 µM (≈ 3.06 µg/mL). Also, the MIC was 5 µM (≈ 1.53 µg/mL) in the data set on M. tuberculosis strains (read-out: Antitubercular activity Strain & MIC (μM) C); 5 to 10 µM (≈ 1.53 to 3.06 µg/mL) in the data set with M. tuberculosis strains (read-out: Antitubercular activity Strain & MIC (μM) D); 5 to 10 µM (≈ 1.53 to 3.06 µg/mL) in the data set on M. tuberculosis strains (read-out: Antitubercular activity Strain & MIC (μM) E); 5 to 10 µM (≈ 1.53 to 3.06 µg/mL) in the data set on M. tuberculosis strains (read-out: Antitubercular activity Strain & MIC (μM) F); 22 ± 1 µM (≈ 6.74 µg/mL) with E. coli TolC. Besides, the results for the concentration for a half-maximal effect (EC50) with HepG2, in the data set on HEK293 and with A549 were 0.8 ± 0.2 µM, 16 ± 7 µM and approximately 50 µM, respectively. The “hit validation (false-positive check)” value on MtDXPS [7] is listed as “true inhibitors”. Besides, in [8], the half-life at 10 µM amounted to 6 ± 2 min.

`Nc1ccc(/C(Cc2ccc(Cl)cc2)=N/O)c(O)c1` [Compound 25]: the “inhibitory activity against MtDXPS, SAR statement” value at MtDXPS [3] is “more active than their parent molecules”. Further, the Ki on MtDXPS [3] (Table 1B, oxime derivatives, MtDXPS, read-out: K i*) was 0.1 ± 0.03 µM. The “activity against M. tuberculosis strains” value in the data set on mCherry-Mtb H37Rv was “retains some activity”. Further, the results for the EC50 in the data set on HepG2, in the data set on HEK293 and in the data set with A549 were 0.73 ± 0.12 µM, 18 ± 5.5 µM and approximately 50 µM, respectively. Also, the half-life at 10 µM in [8] is 56 ± 0.4 min.

For `Cc1ncc(Cc2csc(CCO)c2C)c(N)n1` [DZT, deazathiamine, reference compound], the IC50 on MtDXPS [1] was more than 4000 µM; on DrDXPS (WT) [2] ([ThDP] 0.1 μM (1.6x Km), [PYR] 0.5 mM (2.4x), [D-GAP] 0.5 mM (2.9x)) it was 273 ± 16 µM; against DrDXPS (WT) [2] ([ThDP] 0.5 μM (8x Km), [PYR] 0.5 mM (2.4x), [D-GAP] 1.0 mM (5.8x)) it was 1210 ± 156 µM; against DrDXPS (WT) [2] ([ThDP] 0.5 μM (8x Km), [PYR] […] (1.2x), [D-GAP] 0.5 mM (2.9x)), 486 ± 136 µM; against DrDXPS (WT) [2] (reference condition [ThDP] 0.5 μM (8x Km), [PYR] 0.5 mM (2.4x), [D-GAP] 0.5 mM (2.9x)), 845 ± 177 µM. Besides, on DrDXPS (WT) [2] (MOI study, Fig. 2B), the “mode of inhibition on DrDXPS” value is “competitive with ThDP, PYR and D-GAP”. Moreover, the “activity against MtDXPS” value at MtDXPS [9] is “not active”. Besides, the “inhibition of DrDXPS” value on DrDXPS (WT) [10] is listed as “weak inhibitor”.

Regarding `CC1(C)C(=O)ON(Cc2ccccc2Cl)C1=O` [Ketoclomazone, ketoclomazone], in the data set on DXPS (read-out: Activity on target enzyme: IC50, Fig. 1A), the IC50 is 1 µM.

For the molecule `O=CN(O)CCCP(=O)(O)O` [Fosmidomycin, fosmidomycin, reference compound], the MIC in [5] ([IPTG] 0 mM) was 76 ± 14 µM (≈ 13.9 µg/mL); in data set [5] (setting [11]), more than 1000 µM; in data set [6] ([IPTG] 0 mM), 56 ± 8 µM (≈ 10.3 µg/mL); in data set [6] (setting [12]) it was 59 ± 10 µM (≈ 10.8 µg/mL). For the same molecule, in the data set on P. falciparum, the EC50 was 0.98 µM. The half-maximal inhibitory concentration (IC50) in the data set with IspC was 0.35 µM.

In the case of `OCc1cn(Cc2ccc(Cl)c(Cl)c2)c2ccc(F)cc12` [Compound 17], the “inhibitory activity against MtDXPS, SAR statement” value against MtDXPS [3] is reported as “more active than their parent molecules”. For the same molecule, at MtDXPS [3] (Table 1A, indole derivatives, MtDXPS, read-out: K i*), the Ki was 0.4 ± 0.06 µM. Further, the “activity against M. tuberculosis strains” value in the data set on mCherry-Mtb H37Rv is “no activity”. For the same molecule, the EC50 in the data set on HepG2, in the data set with HEK293 and with A549 was more than 50 µM in each case. Also, the half-life at 10 µM in data set [8] came to 27 ± 10 min.

In the case of `Cc1ccc(-n2sc3ccccc3c2=O)cc1S(=O)(=O)N1CCOCC1` [BITZ], the concentration for a half-maximal effect (EC50) with P. falciparum is 4.3 µM. For the same molecule, in the data set with IspD, the IC50 is 0.45 µM.

As for `CCCCOP(=O)(O)C(C)=O` [BAP, Butylacetylphosphonate], the “Activity on target pathogen: MIC” value in the data set with E. coli was 5 µM. On DXPS (read-out: Activity on target enzyme: Ki, Fig. 1A), the Ki was 5.6 µM.

Consider `CCOC(=O)C1=C(C)N=c2s/c(=C\c3cc(Br)c(O)c(Br)c3)c(=O)n2C1c1cccs1` (stereo not drawn) [TZLP], for which the EC50 in the data set on P. falciparum is 1.5 µM. The IC50 in the data set on IspF was 9.6 µM.

The record behind these values is PMC9491098, “Discovery of novel drug-like antitubercular hits targeting the MEP pathway enzyme DXPS by strategic application of ligand-based virtual screening” (Chemical Science, 2022).
